Laboratory results: ChEMBL document CHEMBL1800005, “Synthesis and biological activity of a series of tetrasubstituted-imidazoles as P2X(7) antagonists” (Bioorg Med Chem Lett, 2010)
In brackets after ≈: the same amount, converted by molar mass.

What was measured:
P2X purinoceptor 7 [1] = biological target: T1, P2X purinoceptor 7 (Rattus norvegicus, UniProt Q64663); experiment: Antagonist activity at rat recombinant P2X7 receptor expressed in HEK293 cells by ethidium bromide […] assay; format: functional, cell-based
T1 sequence (Q64663 whole entry): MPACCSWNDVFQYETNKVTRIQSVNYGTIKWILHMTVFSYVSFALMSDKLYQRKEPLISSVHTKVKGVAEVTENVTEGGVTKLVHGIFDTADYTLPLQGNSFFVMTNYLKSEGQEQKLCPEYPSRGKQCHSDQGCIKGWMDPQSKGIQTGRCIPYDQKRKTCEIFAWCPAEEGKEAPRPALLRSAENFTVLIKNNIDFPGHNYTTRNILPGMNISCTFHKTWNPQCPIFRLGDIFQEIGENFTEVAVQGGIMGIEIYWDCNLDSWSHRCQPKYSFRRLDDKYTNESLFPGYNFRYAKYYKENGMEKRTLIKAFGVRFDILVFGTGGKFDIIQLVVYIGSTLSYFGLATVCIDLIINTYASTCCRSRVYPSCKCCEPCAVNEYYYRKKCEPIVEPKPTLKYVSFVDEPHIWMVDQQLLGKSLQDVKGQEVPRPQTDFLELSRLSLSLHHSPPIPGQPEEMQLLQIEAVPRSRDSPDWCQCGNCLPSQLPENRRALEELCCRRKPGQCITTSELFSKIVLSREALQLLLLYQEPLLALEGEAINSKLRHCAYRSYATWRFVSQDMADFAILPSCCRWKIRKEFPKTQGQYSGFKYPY

P2X purinoceptor 7 [2] = biological target: T2, P2X purinoceptor 7 (Homo sapiens, UniProt Q99572); experiment: Antagonist activity at human recombinant P2X7 receptor expressed in HEK293 cells by ethidium bromide […] assay; format: functional, cell-based
T2 sequence (Q99572 whole entry): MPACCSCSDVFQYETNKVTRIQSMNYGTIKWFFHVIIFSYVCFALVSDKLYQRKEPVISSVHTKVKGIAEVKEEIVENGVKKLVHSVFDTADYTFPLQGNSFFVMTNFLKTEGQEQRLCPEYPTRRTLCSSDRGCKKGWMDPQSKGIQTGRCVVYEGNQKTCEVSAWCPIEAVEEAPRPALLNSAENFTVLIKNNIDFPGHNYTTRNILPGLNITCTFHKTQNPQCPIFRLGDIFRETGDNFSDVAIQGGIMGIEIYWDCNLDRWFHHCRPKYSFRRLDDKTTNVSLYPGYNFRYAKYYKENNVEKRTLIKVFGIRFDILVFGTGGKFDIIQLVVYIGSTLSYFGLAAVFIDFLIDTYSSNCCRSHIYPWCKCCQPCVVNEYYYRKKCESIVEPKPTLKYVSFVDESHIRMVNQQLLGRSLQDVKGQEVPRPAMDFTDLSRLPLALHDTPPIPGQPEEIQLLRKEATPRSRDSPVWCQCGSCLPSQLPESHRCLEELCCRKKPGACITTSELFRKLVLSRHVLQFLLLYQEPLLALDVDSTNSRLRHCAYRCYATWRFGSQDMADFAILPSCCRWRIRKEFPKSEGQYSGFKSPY

[3] = Solubility of compound in simulated gastric fluid at pH 1.2 after 1 hr; format: physicochemical
[4] = Solubility of compound in fed state simulated intestinal fluid at pH 5 after 1 hr; format: physicochemical
[5] = Solubility of compound in fasted state simulated intestinal fluid at pH 6.5 after 1 hr; format: physicochemical
Cytochrome P450 2D6 = Cytochrome P450 2D6 (Homo sapiens, UniProt P10635); experiment: Inhibition of CYP2D6; format: ADME
Cytochrome P450 2D6, sequence (P10635 whole entry): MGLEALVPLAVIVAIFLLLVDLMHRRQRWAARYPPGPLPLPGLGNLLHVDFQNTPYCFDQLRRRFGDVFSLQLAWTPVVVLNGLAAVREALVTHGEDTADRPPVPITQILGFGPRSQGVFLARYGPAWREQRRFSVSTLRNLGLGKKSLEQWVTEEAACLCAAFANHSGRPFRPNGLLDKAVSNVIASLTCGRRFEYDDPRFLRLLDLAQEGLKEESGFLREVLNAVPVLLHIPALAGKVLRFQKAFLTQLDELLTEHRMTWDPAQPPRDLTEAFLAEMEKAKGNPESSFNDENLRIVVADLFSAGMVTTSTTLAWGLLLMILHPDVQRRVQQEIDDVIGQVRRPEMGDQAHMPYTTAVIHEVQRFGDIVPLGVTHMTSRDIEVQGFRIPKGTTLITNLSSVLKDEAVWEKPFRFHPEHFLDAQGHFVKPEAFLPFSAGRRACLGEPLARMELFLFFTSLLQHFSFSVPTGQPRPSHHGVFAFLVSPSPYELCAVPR

Cytochrome P450 3A4 = Cytochrome P450 3A4 (Homo sapiens, UniProt P08684); experiment: Inhibition of CYP3A4 using diethoxyflourescein as a substrate; format: ADME
Cytochrome P450 3A4, sequence (P08684 whole entry): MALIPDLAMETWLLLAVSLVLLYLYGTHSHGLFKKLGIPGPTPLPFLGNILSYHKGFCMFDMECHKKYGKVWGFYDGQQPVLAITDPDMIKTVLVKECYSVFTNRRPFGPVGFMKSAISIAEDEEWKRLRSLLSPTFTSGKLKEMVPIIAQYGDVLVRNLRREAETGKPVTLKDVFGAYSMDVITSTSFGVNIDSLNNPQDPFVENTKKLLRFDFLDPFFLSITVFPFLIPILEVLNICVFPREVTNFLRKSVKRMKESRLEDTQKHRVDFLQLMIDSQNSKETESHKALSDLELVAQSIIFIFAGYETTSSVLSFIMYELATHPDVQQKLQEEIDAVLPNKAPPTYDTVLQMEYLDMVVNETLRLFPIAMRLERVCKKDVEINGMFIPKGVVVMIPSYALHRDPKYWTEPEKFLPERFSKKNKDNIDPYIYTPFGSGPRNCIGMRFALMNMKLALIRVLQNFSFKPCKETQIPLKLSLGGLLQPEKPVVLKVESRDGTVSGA

Cytochrome P450 2C19 = Cytochrome P450 2C19 (Homo sapiens, UniProt P33261); experiment: Inhibition of CYP2C19; format: ADME
Cytochrome P450 2C19, sequence (P33261 whole entry): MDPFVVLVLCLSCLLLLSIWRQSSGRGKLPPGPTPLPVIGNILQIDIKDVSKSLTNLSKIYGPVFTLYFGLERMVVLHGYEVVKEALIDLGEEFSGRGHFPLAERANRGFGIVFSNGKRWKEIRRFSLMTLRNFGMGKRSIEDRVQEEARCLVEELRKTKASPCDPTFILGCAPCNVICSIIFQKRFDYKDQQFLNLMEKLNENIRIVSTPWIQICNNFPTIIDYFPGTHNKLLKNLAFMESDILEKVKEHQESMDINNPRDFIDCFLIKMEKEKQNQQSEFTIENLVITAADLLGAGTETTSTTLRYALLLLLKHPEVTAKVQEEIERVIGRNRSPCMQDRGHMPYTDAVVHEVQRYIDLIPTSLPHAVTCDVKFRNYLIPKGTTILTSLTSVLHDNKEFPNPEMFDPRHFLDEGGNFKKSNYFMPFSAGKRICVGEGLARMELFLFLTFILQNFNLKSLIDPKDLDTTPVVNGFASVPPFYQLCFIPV

Albumin = Albumin (Homo sapiens, UniProt P02768); experiment: Protein binding in human serum albumin; format: ADME; conditions: read-out: PB
Albumin, sequence (P02768 whole entry): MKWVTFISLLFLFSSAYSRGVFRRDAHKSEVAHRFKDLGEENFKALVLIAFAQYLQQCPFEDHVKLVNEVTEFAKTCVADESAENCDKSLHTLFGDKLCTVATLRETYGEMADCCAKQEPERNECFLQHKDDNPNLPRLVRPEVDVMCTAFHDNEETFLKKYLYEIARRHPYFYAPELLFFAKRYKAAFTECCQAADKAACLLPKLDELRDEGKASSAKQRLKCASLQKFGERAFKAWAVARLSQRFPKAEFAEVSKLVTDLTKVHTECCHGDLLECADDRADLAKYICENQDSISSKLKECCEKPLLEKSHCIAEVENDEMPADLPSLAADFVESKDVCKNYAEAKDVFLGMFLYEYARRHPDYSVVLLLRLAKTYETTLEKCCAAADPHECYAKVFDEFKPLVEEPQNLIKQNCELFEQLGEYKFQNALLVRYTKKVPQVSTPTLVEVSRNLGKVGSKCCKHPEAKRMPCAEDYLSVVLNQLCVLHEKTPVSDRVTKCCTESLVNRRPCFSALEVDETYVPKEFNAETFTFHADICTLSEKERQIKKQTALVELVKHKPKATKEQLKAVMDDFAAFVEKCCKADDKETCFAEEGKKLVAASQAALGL

Cytochrome P450 1A2 = biological target: T3, Cytochrome P450 1A2 (Homo sapiens, UniProt P05177); experiment: Inhibition of CYP1A2; format: ADME
T3 sequence (P05177 whole entry): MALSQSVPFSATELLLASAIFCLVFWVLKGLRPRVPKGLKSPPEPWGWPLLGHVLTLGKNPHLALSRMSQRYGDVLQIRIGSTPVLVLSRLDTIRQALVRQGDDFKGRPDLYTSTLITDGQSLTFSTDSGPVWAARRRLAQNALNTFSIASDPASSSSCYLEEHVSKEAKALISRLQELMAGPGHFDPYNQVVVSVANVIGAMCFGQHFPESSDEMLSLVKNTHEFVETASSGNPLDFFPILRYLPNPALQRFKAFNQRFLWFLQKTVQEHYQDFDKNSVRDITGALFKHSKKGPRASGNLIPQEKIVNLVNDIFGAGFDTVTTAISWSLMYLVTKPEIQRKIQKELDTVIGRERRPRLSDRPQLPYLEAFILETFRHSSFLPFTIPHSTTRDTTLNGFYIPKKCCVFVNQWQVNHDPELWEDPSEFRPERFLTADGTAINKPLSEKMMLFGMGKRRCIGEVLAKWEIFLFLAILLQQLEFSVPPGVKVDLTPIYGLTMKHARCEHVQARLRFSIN

[6] = Dissociation constant, pKa of the compound; format: physicochemical
Cytochrome P450 2C9 = Cytochrome P450 2C9 (Homo sapiens, UniProt P11712); experiment: Inhibition of CYP2C9; format: ADME
Cytochrome P450 2C9, sequence (P11712 whole entry): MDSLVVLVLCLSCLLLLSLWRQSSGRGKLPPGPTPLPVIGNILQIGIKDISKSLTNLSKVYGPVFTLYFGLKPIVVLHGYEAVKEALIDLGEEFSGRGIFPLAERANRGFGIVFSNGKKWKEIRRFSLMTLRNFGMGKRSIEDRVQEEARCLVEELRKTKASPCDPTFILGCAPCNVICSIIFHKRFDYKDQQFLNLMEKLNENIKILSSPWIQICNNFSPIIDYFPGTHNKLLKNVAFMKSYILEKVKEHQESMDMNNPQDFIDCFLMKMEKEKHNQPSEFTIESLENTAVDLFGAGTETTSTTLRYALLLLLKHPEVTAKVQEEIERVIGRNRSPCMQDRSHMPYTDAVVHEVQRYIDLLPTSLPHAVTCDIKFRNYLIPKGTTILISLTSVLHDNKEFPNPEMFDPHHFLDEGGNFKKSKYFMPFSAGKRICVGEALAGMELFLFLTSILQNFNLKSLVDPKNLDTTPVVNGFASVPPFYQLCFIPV

[7] = Cmax in rat at 3 mg/kg, po; format: ADME, organism-based; parameters: dose 3 mg/kg, route oral; conditions: in vivo
[8] = Solubility of the compound in water after 1 hr; format: physicochemical
Rattus norvegicus = experiment: Dose normalized AUC (0 to 6 hrs) in rat at 3 mg/kg, po; format: ADME, organism-based; parameters: dose 3 mg/kg, route oral; conditions: in vivo
[9] = Tmax in rat at 3 mg/kg, po; format: ADME, organism-based; parameters: dose 3 mg/kg, route oral; conditions: in vivo

Row | Structure (SMILES) | IC50 (P2X purinoceptor 7 [1]) [nM] | IC50 (P2X purinoceptor 7 [2]) [nM] | further results
1 | Cc1nn(-c2ccccc2)c(C)c1CC(=O)NCc1ccc(F)cc1Cl |  |  | solubility at 1 h [3]: 410 µg/mL (≈ 1100 µM); solubility at 1 h [4]: 100 µg/mL (≈ 269 µM); solubility at 1 h [5]: 120 µg/mL (≈ 323 µM)
2 | Cc1nc(-c2ccc(F)cc2F)n(C)c1CC(=O)NCc1ccc(F)cc1Cl [listing 1 of 2 here] |  |  | IC50 (Cytochrome P450 2D6): > 10000 nM; IC50 (Cytochrome P450 3A4): 5500 nM; IC50 (Cytochrome P450 2C19): > 10000 nM; fraction unbound (Albumin): 0.09; IC50 (Cytochrome P450 1A2): > 10000 nM; pKa [6]: 6.47; IC50 (Cytochrome P450 2C9): > 10000 nM
3 | CCn1c(-c2ccccc2)nc(C)c1CC(=O)NCc1ccc(F)cc1Cl | 158 | 100 | 
4 | CCn1c(-c2ccccc2)nc(C)c1CC(=O)NCc1cccc(Cl)c1C | 631 | 50.1 | 
5 | Cc1cccc(Cl)c1CNC(=O)Cc1c(C)nc(-c2ccccc2)n1C | 3160 | 50.1 | 
6 | CCn1c(-c2ccccc2)nc(C)c1CC(=O)NCc1c(C)cccc1Cl | 501 | 50.1 | 
7 | Cc1nc(-c2ccccc2)n(C)c1CC(=O)NCc1ccc(F)c(F)c1F | 5010 | 100 | 
8 | CCn1c(-c2ccccc2)nc(C)c1CC(=O)NCc1ccc(F)c(F)c1F | 3980 | 158 | 
9 | Cn1c(CC(=O)NCc2ccc(F)cc2Cl)cnc1-c1ccc(F)cc1F | 251 | 200 | 
10 | CCn1c(CC(=O)NCc2ccc(F)cc2Cl)cnc1-c1ccc(F)cc1F | 398 | 501 | 

The next lines start with results.

Row | IC50 (P2X purinoceptor 7 [1]) [nM] | IC50 (P2X purinoceptor 7 [2]) [nM] | Structure (SMILES) | further results
11 | 251 | 39.8 | Cc1nc(-c2ccccc2)n(C)c1CC(=O)NCc1ccc(F)cc1Cl | 
12 | 1580 | 50.1 | Cc1nc(-c2ccccc2)n(C)c1CC(=O)NCc1cccc(Cl)c1C | 
13 | 316 | 39.8 | Cc1nc(-c2ccc(F)cc2F)n(C)c1CC(=O)NCc1ccc(F)cc1Cl [listing 2 of 2 here] | solubility at 1 h [3]: > 1000 µg/mL; Cmax [7]: 430 nM; solubility at 1 h [4]: 900 µg/mL (≈ 2210 µM); solubility at 1 h [8]: 920 µg/mL (≈ 2260 µM); AUC/dose (Rattus norvegicus): 6.8 kg·min/L; Tmax [9]: 30 min; solubility at 1 h [5]: 370 µg/mL (≈ 907 µM)
14 | 158 | 100 | CCn1c(-c2ccc(F)cc2F)nc(C)c1CC(=O)NCc1ccc(F)cc1Cl | 
15 | 631 | 31.6 | Cc1nc(-c2ccc(F)cc2F)n(C)c1CC(=O)NCc1cccc(Cl)c1C | 
16 | 398 | 39.8 | CCn1c(-c2ccc(F)cc2F)nc(C)c1CC(=O)NCc1cccc(Cl)c1C | 
17 | 631 | 50.1 | CCn1c(-c2ccc(F)cc2F)nc(C)c1CC(=O)NCc1c(C)cccc1Cl | 
18 | > 10000 | 63.1 | Cc1nc(-c2ccc(F)cc2F)n(C)c1CC(=O)NCc1ccc(F)c(F)c1F | 
19 | 1000 | 126 | CCn1c(-c2ccc(F)cc2F)nc(C)c1CC(=O)NCc1ccc(F)c(F)c1F | 
20 | 631 | 63.1 | Cc1c(Cl)cccc1CNC(=O)Cc1cnc(-c2ccc(F)cc2F)n1C | 
